# In US20240335465A1 (University of Virginia Patent Foundation, priority 2021, published 2024):
# Columns and labels:
# γH2AX = γH2AX immunofluorescence (human RPE, THP1 cells); type: cell-based
# Experimental: Immunofluorescence Staining: 16,500 adherent cells/cm^2 were plated on a gelatin coated 8-chamber slide (VWR, Catalogue #62407-296) and treated as indicated. Media was removed and cells were washed with 1×PBS with Ca^2+/Mg^2+ and fixed with 4% PFA for 20 minutes. Fixed cells were permeabilized with PBS+0.1% Triton-X and washed 3 times with PBS+0.1% Tween20. After treatment as indicated, non-adherent THP1 cells were collected by centrifugation, washed in cold PBS and fixed in PFA. Post-fixation, they were washed with PBS, spotted on gelatin coated “PTFE” Printed Slides (Electron Microscopy Sciences, Cat #63424-06), and air-dried. For γH2AX staining, permeabilized cells were blocked in Serum-free DAKO Protein Block (Agilent, Catalogue #X0909) for 1 hr at room temperature. Cells were incubated in primary antibody (γH2AX, 1:500; anti-HA, 1:100; Table 1) in DAKO antibody diluent at 4° C. overnight on a rocker platform. U2OS-STING cells undergoing Rad51 staining were first fixed in methanol for 20 minutes in −20° C., blocked for 1 hr with donkey block (2% normal donkey serum, 1% BSA, 0.1% Triton X 100, 0.05% Tween20, 0.05% Sodium Azide in PBS), then finally incubated in an anti-Rad51 antibody overnight at 4° C. (Bio-academia Cat #70-001, 1:6000 in 5% milk in TBST). For RPA70 staining, cells were fixed in 4% PFA at room temperature for 20 minutes and blocked in Cell Signaling blocking buffer (1×PBS/5% normal donkey serum/0.3% Triton™ X-100) for 1 hr in room temperature then incubated in an RPA70 antibody (Cell Signaling Cat #2267, 1:50 in blocking buffer) overnight at 4° C. Primary antibody was washed 3 times and incubated with secondary antibodies (Invitrogen, Alexa 555, 488) for 1 hr at room temperature. Coverslips were mounted on the cells with ProLong™ Gold Antifade mounting media with DAPI (Thermofisher, Catalogue #P36935). All images were obtained by confocal microscopy (Nikon, C2).
# NAD^+ = assay: NAD+ quantification; type: cell-based, human; settings: WT and STING−/− THP1, cGAMP
# HEK293-TrLR cells = assay: HDR and NHEJ assay using Traffic Light Reporter; type: cell-based, human
# Experimental: TrLR-integrated HEK293 cells were selected through exposure to 5 μg/ml puromycin for 2 weeks. […] 8 hours following this procedure, cells were transfected with pCVL SFFV d14GFP Donor (Addgene Cat #31475), pCBASceI (Addgene Cat #26477)), or Donor+SceI using Lipofectamine 3000. 72 hours post-transfection, cells were trypsinized, collected, and analyzed with an Attune NxT flow cytometer (Thermofisher). To quantify the DNA repair events, ˜10,000-30,000 cells were acquired on an Attune NxT cytometer and analyzed using FCS Express software. Single cell events were determined by gating on the area against the width of the forward scatter pulse signal. Debris removal was performed by excluding events with very low forward and side scatter. For determining % of GFP and mCherry positive cells we established positive and negative populations using mock transfections as negative controls and GFP or mCherry transfected samples as Fluorescence Minus One controls.
# DDR signaling [1] = assay: DDR signaling immunoblot in STING-reconstituted U2OS cells; type: cell-based, human; settings: cGAMP 18 hours
# Experimental: Generation of U2OS-STING cells: WT U2OS cells were reconstituted with STING by integrating LentiORF-TMEM173 (CCSB-Broad Lentiviral Expression Collection, TMEM173, Cat #ccsbBroad304_05465) via lentiviral transduction of U2OS cells as described above. Exposure to blasticidin (10 μg/ml) for 14 days facilitated the selection of STING integrated cells whose protein over-expression profiles were assessed by immunoblotting.
# DDR signaling [2] = assay: DDR signaling immunoblot in HEK293 cells; type: cell-based, human; settings: HEK293, 4 hours post transfection
# Crassostrea virginica = assay: DDR in oysters after adductor muscle injection; type: in vivo; settings: hemocytes; cGAMP 25 μg/50 gm, doxorubicin 1 μg/50 gm oyster weight, 16 hours
# Experimental: Oysters: Wild adult eastern oysters (Crassostrea virginica) of both male and female sexes ranging from 2 cm-7 cm in length (1 to 3 years in age) were collected from a natural oyster reef on Virgnia's Eastern Shore. Following collection, the diploid oysters were placed on ice and transported approximately 3 h to the University of Virginia main campus in Charlottesville, VA. There they were stored in an aerated aquarium containing water supplemented with Instant Ocean® Aquarium Sea Salt (50 gm/l). […] Treated oysters were kept at 4° C. in the dark for 16 hours after which they were shucked, had their hemolymph/tissues harvested for analysis by western blotting, and dead oyster and shell were disposed of.
# PARP1, PARP2, Tankyrase = PARP1, PARP2, Tankyrase abundance immunoblot; type: cell-based, human
# DDR signaling [3] = assay: DDR signaling immunoblotting in THP1 cells
structure (smiles),measurement,setting,value
"Nc1nc2c(ncn2[C@@H]2O[C@@H]3COP(=O)(O)O[C@H]4[C@@H](O)[C@H](n5cnc6c(N)ncnc65)O[C@@H]4COP(=O)(O)O[C@@H]2[C@@H]3O)c(=O)[nH]1 [cGAMP, cyclic guanosine monophosphate-adenosine monophosphate]",cGAMP-induced pan-nuclear γH2AX staining,"γH2AX; WT, STING−/−, shIFNAR THP1 cells, 16 hours",suppressed in STING^−/− but not in sh-IFNAR THP1 cells
same,γH2AX staining pattern,"γH2AX; human RPE cells, doxorubicin 2 hours, cGAMP or HT-DNA 6 hours",γH2AX marked by pan-nuclear staining
same,abundance of cellular NAD^+,NAD^+,significantly reduced the abundance of cellular NAD^+ in a STING-dependent manner
same,HDR suppression by cGAMP in rucaparib-pretreated cells,HEK293-TrLR cells; 1 μM Rucaparib,ineffective at HDR suppression in cells pretreated with rucaparib
same,"HDR in ATM inhibitor treated cells, mock vs. cGAMP",HEK293-TrLR cells; 25 μM KU-55933,still suppressed HDR
same,HDR frequency,"HEK293-TrLR cells; I-SceI with donor, 72 hours",significantly reduced the prevalence of HDR
same,NHEJ frequency,"HEK293-TrLR cells; I-SceI, 72 hours",unaffected in either case
same,"DDR signaling (γH2AX, pCHK2)",DDR signaling [1],exhibiting biochemical evidence of DDR signaling
same,"phosphorylation status of H2AX, STING, and STAT2",DDR signaling [2],respond normally to cGAMP stimulation
same,TBK1 phosphorylation (pTBK1),Crassostrea virginica,TBK1 phosphorylation
same,γH2AX,Crassostrea virginica,elevated levels of γH2AX
same,abundance of PARP1,"PARP1, PARP2, Tankyrase; THP1 and HEK293 cells",significantly augmented
same,"abundance of PARP1, PARP2, Tankyrase","PARP1, PARP2, Tankyrase; cGAMP-stimulated cells","no decrease in the abundance of PARP1, PARP2, or Tankyrase"
same,cGAMP-mediated induction of γH2AX and pCHK2,DDR signaling [3]; IFNAR1 and STAT2 knockdown THP1 cells,failed to impede cGAMP-mediated induction of γH2AX and pCHK2
same,"activation of DDR by cGAMP (H2AX, ATM, CHK2 phosphorylation)","DDR signaling [3]; STING−/− THP1 cells, 16 hours",abrogated by the deletion of STING
same,"DDR activation (γH2AX, pCHK2)","DDR signaling [3]; THP1, LPS 500 ng/ml 6 hours, cGAMP 16 hours",activated the DDR
same,ATR phosphorylation (pATR),DDR signaling [3]; WT THP1,inducing ATR phosphorylation
same,CHK1 activation (pCHK1),DDR signaling [3]; WT THP1,neither activation of CHK1
same,cGAMP-induced DDR signaling,"DDR signaling [3]; cGAS−/− THP1 cells, 16 hours",proceeded normally in cGAS-deficient cells
same,γH2AX in target THP1 cells incubated with conditioned media from cGAMP treated cells,"DDR signaling [3]; conditioned media collected after 18 hours, 18 hours on target cells",failed to induce γH2AX
same,cGAMP-induced DDR signaling,DDR signaling [3]; shTBK1 knockdown THP1 cells,substantially reduced cGAMP-induced DDR signaling
